Test results from patent US10577378B2, “EIF4A-inhibiting compounds and methods related thereto” (eFFECTOR Therapeutics, Inc., priority 2015, dated 2020).

The compounds below were run on MDA-MB-231 human breast cancer cells (assay: Cell proliferation assay (CellTiter-Glo, 72 hours treatment)). Details: Homo sapiens; MDA-MB-231 cells, 72 hours at 37° C., CellTiter-Glo; read-out: MDA-MB-231 cell proliferation assay (IC50).
Assay type: cell-based
Procedure, shortened: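 MDA-MB-231 cells seeded at 2,500 cells/well, treated next day with compound or DMSO vehicle for 72 h at 37 °C. Proliferation read by CellTiter-Glo; IC50 from sigmoidal non-linear regression, binned as +++ (<100 nM), ++ (100–1000 nM), + (>1000 nM).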

Row | Compound | IC50 [nM]
1 | COc1cncc2c1[C@]1(O)[C@H](O)[C@H](CN(C)C3COC3)[C@@H](c3ccccc3)[C@]1(c1ccc(C#N)cc1)O2 (racemic) [238F, Rac-4-((4bS,5R,6S,7S,7aR)-4b,5-dihydroxy-4-methoxy-6-((methyl(oxetan-3-yl)amino)methyl)-7-phenyl-4b,5,6,7-tetrahydro-7aH-cyclopenta[4,5]furo[2,3-c]pyridin-7a-yl)benzonitrile] | 100 to 1000
2 | COC(=O)C1(F)[C@@H](O)[C@@]2(O)c3ncc(Cl)cc3O[C@@]2(c2ccc(C#N)cc2)[C@@H]1c1ccccc1 (mixture of isomers) [59F, Rac-methyl (5aR,6S,8S,8aS)-3-chloro-5a-(4-cyanophenyl)-7-fluoro-8,8a-dihydroxy-6-phenyl-5a,7,8,8a-tetrahydro-6H-cyclopenta[4,5]furo[3,2-b]pyridine-7-carboxylate] | > 1000
3 | CN(C)C(=O)[C@H]1[C@@H](O)[C@@]2(O)c3c(C#N)cncc3O[C@@]2(c2ccc(C#N)cc2)[C@@H]1c1ccccc1 (racemic) [96F, Rac-(4bS,5R,6R,7S,7aR)-4-cyano-7a-(4-cyanophenyl)-4b,5-dihydroxy-N,N-dimethyl-7-phenyl-4b,6,7,7a-tetrahydro-5H-cyclopenta[4,5]furo[2,3-c]pyridine-6-carboxamide] | > 1000
4 | N#Cc1ccc([C@@]23Oc4cc(Cl)cnc4[C@]2(O)[C@@H](CN2CCOCC2)C[C@H]3c2ccccc2)cc1 (racemic) [178F, Rac-4-((5aR,6S,8R,8aR)-3-chloro-8a-hydroxy-8-(morpholinomethyl)-6-phenyl-6,7,8,8a-tetrahydro-5aH-cyclopenta[4,5]furo[3,2-b]pyridin-5a-yl)benzonitrile] | < 100
5 | COc1cncc2c1[C@]1(O)[C@H](O)[C@H](C(=O)N3CC4(COC4)C3)[C@@H](c3ccccc3)[C@]1(c1ccc(Br)cc1)O2 (racemic) [235F, Rac-((4bS,5R,6R,7S,7aR)-7a-(4-bromophenyl)-4b,5-dihydroxy-4-methoxy-7-phenyl-4b,6,7,7a-tetrahydro-5H-cyclopenta[4,5]furo[2,3-c]pyridin-6-yl)(2-oxa-6-azaspiro[3.3]heptan-6-yl)methanone] | < 100
6 | CNC[C@H]1[C@@H](O)[C@@]2(O)c3c(cc(Cl)nc3OC)O[C@@]2(c2ccc(C#N)cc2)[C@@H]1c1ccccc1 (racemic) [224F, Rac-4-((5aR,6S,7S,8R,8aS)-3-chloro-8,8a-dihydroxy-1-methoxy-7-((methylamino)methyl)-6-phenyl-6,7,8,8a-tetrahydro-5aH-cyclopenta[4,5]furo[3,2-c]pyridin-5a-yl)benzonitrile] | < 100
7 | CS(=O)(=O)[C@H]1[C@@H](O)[C@@]2(O)c3ncc(C#N)cc3O[C@@]2(c2ccc(C#N)cc2)[C@@H]1c1ccccc1 [86F, (5aR,6S,7R,8S,8aS)-5a-(4-cyanophenyl)-8,8a-dihydroxy-7-(methylsulfonyl)-6-phenyl-5a,7,8,8a-tetrahydro-6H-cyclopenta[4,5]furo[3,2-b]pyridine-3-carbonitrile] | > 1000
8 | COc1cncc2c1[C@]1(O)[C@H](O)[C@H](C(=O)NCc3ccnn3C)[C@@H](c3ccccc3)[C@]1(c1ccc(Br)cc1)O2 (racemic) [241F, rac-(4bS,5R,6R,7S,7aR)-7a-(4-bromophenyl)-4b,5-dihydroxy-4-methoxy-N-((1-methyl-1H-pyrazol-5-yl)methyl)-7-phenyl-4b,6,7,7a-tetrahydro-5H-cyclopenta[4,5]furo[2,3-c]pyridine-6-carboxamide] | < 100
9 | COc1nc(Cl)cc2c1[C@]1(O)[C@H](O)[C@H](CN3CCOCC3)[C@@H](c3ccccc3)[C@]1(c1ccc(C#N)cc1)O2 (racemic) [152F, Rac-4-((5aR,6S,7S,8R,8aS)-3-chloro-8,8a-dihydroxy-1-methoxy-7-(morpholinomethyl)-6-phenyl-6,7,8,8a-tetrahydro-5aH-cyclopenta[4,5]furo[3,2-c]pyridin-5a-yl)benzonitrile] | < 100
10 | COc1nc(Cl)cc2c1[C@]1(O)[C@H](O)[C@H](CN3CCC34CC4(F)F)[C@@H](c3ccccc3)[C@]1(c1ccc(C#N)cc1)O2 (mixture of isomers) [222F, Rac-4-((5aR,6S,7S,8R,8aS)-3-chloro-7-((1,1-difluoro-4-azaspiro[2.3]hexan-4-yl)methyl)-8,8a-dihydroxy-1-methoxy-6-phenyl-6,7,8,8a-tetrahydro-5aH-cyclopenta[4,5]furo[3,2-c]pyridin-5a-yl)benzonitrile] | < 100
11 | COc1cncc2c1[C@]1(O)[C@H](O)[C@H](CN(C)C)[C@@H](c3ccccc3)[C@]1(c1ccc(C(F)F)cc1)O2 (single isomer, unassigned) [106F] | 100 to 1000
12 | COc1nccc2c1[C@]1(O)[C@H](O)[C@H](CN(C)C)[C@@H](c3ccccc3)[C@]1(c1ccc(C#N)cc1)O2 (racemic) [141F, Rac-4-((5aR,6S,7S,8R,8aS)-7-((dimethylamino)methyl)-8,8a-dihydroxy-1-methoxy-6-phenyl-6,7,8,8a-tetrahydro-5aH-cyclopenta[4,5]furo[3,2-c]pyridin-5a-yl)benzonitrile] | 100 to 1000
13 | COc1cncc2c1[C@]1(O)[C@H](O)[C@H](CNCC(F)(F)F)[C@@H](c3ccccc3)[C@]1(c1ccc(C#N)cc1)O2 [291F, 4-((4bS,5R,6S,7S,7aR)-4b,5-dihydroxy-4-methoxy-7-phenyl-6-(((2,2,2-trifluoroethyl)amino)methyl)-4b,5,6,7-tetrahydro-7aH-cyclopenta[4,5]furo[2,3-c]pyridin-7a-yl)benzonitrile] | 100 to 1000
14 | O=C1O[C@@H]2[C@H]1[C@@H](c1ccccc1)[C@]1(c3ccc(Br)cc3)Oc3cc(Cl)cnc3[C@]21O (racemic) [169F, Rac-(2aR,3S,3aR,8bS,8cR)-3a-(4-bromophenyl)-6-chloro-8b-hydroxy-3-phenyl-3,3a,8b,8c-tetrahydrooxeto[3″,2″:4′,5′]cyclopenta[1′,2′:4,5]furo[3,2-b]pyridin-2(2aH)-one] | > 1000
15 | CN(C)C(=O)[C@H]1[C@@H](O)[C@@]2(O)c3nn(C)c(Cl)c3O[C@@]2(c2ccc(C#N)cc2)[C@@H]1c1ccccc1 (racemic) [36F, Rac-(4aR,5S,6R,7R,7aS)-3-chloro-4a-(4-cyanophenyl)-7,7a-dihydroxy-N,N,2-trimethyl-5-phenyl-2,4a,5,6,7,7a-hexahydrocyclopenta[4,5]furo[3,2-c]pyrazole-6-carboxamide] | > 1000
16 | CNS(=O)(=O)[C@H]1[C@@H](O)[C@@]2(O)c3ncc(Cl)cc3O[C@@]2(c2ccc(Br)cc2)[C@@H]1c1ccccc1 (racemic) [124F, Rac-(5aR,6S,7R,8S,8aS)-5a-(4-bromophenyl)-3-chloro-8,8a-dihydroxy-N-methyl-6-phenyl-5a,7,8,8a-tetrahydro-6H-cyclopenta[4,5]furo[3,2-b]pyridine-7-sulfonamide] | 100 to 1000
17 | O[C@@H]1C2(CC2)[C@@H](c2ccccc2)[C@]2(c3ccc(Br)cc3)Oc3cc(Cl)cnc3[C@]12O (racemic) [92F, Rac-(5aR,6R,8R,8aS)-5a-(4-bromophenyl)-3-chloro-6-phenyl-5a,6-dihydrospiro[cyclopenta[4,5]furo[3,2-b]pyridine-7,1′-cyclopropane]-8,8a(8H)-diol] | > 1000
18 | COc1cncc2c1[C@]1(O)[C@@H](CNC(C)(C)C)[C@H](CO)[C@@H](c3ccccc3)[C@]1(c1ccc(Br)cc1)O2 (racemic) [226F, Rac-(4bR,5R,6R,7S,7aR)-7a-(4-bromophenyl)-5-((tert-butylamino)methyl)-6-(hydroxymethyl)-4-methoxy-7-phenyl-5,6,7,7a-tetrahydro-4bH-cyclopenta[4,5]furo[2,3-c]pyridin-4b-ol] | < 100
19 | CN(C)C[C@H]1[C@@H](O)[C@@]2(O)c3ncc(Cl)cc3O[C@@]2(c2ccc(C#N)cc2)[C@@H]1c1ccccc1 [104F, 4-((5aR,6S,7S,8R,8aS)-3-chloro-7-((dimethylamino)methyl)-8,8a-dihydroxy-6-phenyl-6,7,8,8a-tetrahydro-5aH-cyclopenta[4,5]furo[3,2-b]pyridin-5a-yl)benzonitrile] | 100 to 1000
20 | COC(=O)[C@H]1[C@@H](O)[C@@]2(F)c3ncc(Cl)cc3O[C@@]2(c2ccc(Br)cc2)[C@@H]1c1ccccc1 (racemic) [43F, Rac-methyl (5aR,6S,7R,8R,8aS)-5a-(4-bromophenyl)-3-chloro-8a-fluoro-8-hydroxy-6-phenyl-5a,7,8,8a-tetrahydro-6H-cyclopenta[4,5]furo[3,2-b]pyridine-7-carboxylate] | > 1000
21 | CN(C)C(=O)[C@H]1[C@@H](O)[C@@]2(O)c3nn(C)c(C#N)c3O[C@@]2(c2ccc(C#N)cc2)[C@@H]1c1ccccc1 (racemic) [82F, Rac-(4aR,5S,6R,7R,7aS)-3-cyano-4a-(4-cyanophenyl)-7,7a-dihydroxy-N,N,2-trimethyl-5-phenyl-2,4a,5,6,7,7a-hexahydrocyclopenta[4,5]furo[3,2-c]pyrazole-6-carboxamide] | > 1000
22 | COc1nc(C#N)cc2c1[C@]1(O)[C@H](O)[C@H](CN3CCCC3)[C@@H](c3ccccc3)[C@]1(c1ccc(Br)cc1)O2 (racemic) [158Fa, Rac-(5aR,6S,7S,8R,8aS)-5a-(4-bromophenyl)-8,8a-dihydroxy-1-methoxy-6-phenyl-7-(pyrrolidin-1-ylmethyl)-5a,7,8,8a-tetrahydro-6H-cyclopenta[4,5]furo[3,2-c]pyridine-3-carbonitrile] | < 100
23 | COc1cc2c(c(OC)n1)[C@]1(O)[C@H](O)[C@H](CN(C)C)[C@@H](c3ccccc3)[C@]1(c1ccc(Br)cc1)O2 (racemic) [230F, Rac-(5aR,6S,7S,8R,8aS)-5a-(4-bromophenyl)-7-((dimethylamino)methyl)-1,3-dimethoxy-6-phenyl-5a,6,7,8-tetrahydro-8aH-cyclopenta[4,5]furo[3,2-c]pyridine-8,8a-diol] | < 100
24 | COc1cncc2c1[C@]1(O)[C@H](O)[C@H](CN3[C@@H]4CC[C@H]3COC4)[C@@H](c3ccccc3)[C@]1(c1ccc(C#N)cc1)O2 (single isomer, unassigned) [265F] | 100 to 1000
